Data reported in the supplement of paper PMC11061612.

What was measured:
Carboplatin = compound: C1CC(C1)(C(=O)[O-])C(=O)[O-].N.N.[Pt+2] [Carboplatin]; settings: max 10 µM
Outline: (§1)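 Cancer cell lines were dosed for 72 hours (final DMSO typically 0.2%) after 24 hours at 37°C and 5% CO2 in 1536-well plates containing 7.5 μl DMEM/F12 or RPMI with 10% FBS. Viability came from CellTiter-Glo 2.0 luminescence, scaled between blank-well and DMSO-well means, and dose responses were fitted to a two-parameter logistic curve with a non-linear mixed effects model. The single-agent IC50 was obtained from this fit.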

AZD5363 = compound: C1CN(CCC1(C(=O)N[C@@H](CCO)C2=CC=C(C=C2)Cl)N)C3=NC=NC4=C3C=CN4 [AZD5363]; settings: max 10 µM
Outline: as §1

AZD1775 = compound: C=CCn1c(=O)c2cnc(Nc3ccc(N4CCN(C)CC4)cc3)nc2n1-c1cccc(C(C)(C)O)n1 [AZD1775]; settings: max 3 µM
Outline: as §1

Trametinib = compound: CC(=O)Nc1cccc(-n2c(=O)n(C3CC3)c(=O)c3c(Nc4ccc(I)cc4F)n(C)c(=O)c(C)c32)c1 [Trametinib]; settings: max 1 µM
Outline: as §1

Paclitaxel = compound: CC(=O)O[C@H]1C(=O)[C@@]2(C)[C@H]([C@H](OC(=O)c3ccccc3)[C@]3(O)C[C@H](OC(=O)[C@H](O)[C@@H](NC(=O)c4ccccc4)c4ccccc4)C(C)=C1C3(C)C)[C@]1(OC(C)=O)CO[C@@H]1C[C@@H]2O [Paclitaxel]; settings: max 3 µM
Outline: as §1

Palbociclib = compound: CC(=O)c1c(C)c2cnc(Nc3ccc(N4CCNCC4)cn3)nc2n(C2CCCC2)c1=O [Palbociclib]; settings: max 10 µM
Outline: as §1

AZD1390 = compound: CC(C)n1c(=O)n(C)c2cnc3cc(F)c(-c4ccc(OCCCN5CCCCC5)nc4)cc3c21 [AZD1390]; settings: max 0.3 µM
Outline: as §1

Venetoclax = compound: CC1(C)CCC(CN2CCN(c3ccc(C(=O)NS(=O)(=O)c4ccc(NCC5CCOCC5)c([N+](=O)[O-])c4)c(Oc4cnc5[nH]ccc5c4)c3)CC2)=C(c2ccc(Cl)cc2)C1 [Venetoclax]; settings: max 1 µM
Outline: as §1

Dasatinib = compound: CC1=C(C(=CC=C1)Cl)NC(=O)C2=CN=C(S2)NC3=CC(=NC(=N3)C)N4CCN(CC4)CCO [Dasatinib]; settings: max 2 µM
Outline: as §1

SG3199 = compound: CC1=CN2[C@@H](C1)C=NC3=CC(=C(C=C3C2=O)OC)OCCCCCOC4=C(C=C5C(=C4)N=C[C@@H]6CC(=CN6C5=O)C)OC [SG3199]; settings: max 0.001 µM
Outline: as §1

AZD2811 = compound: CCN(CCO)CCCOc1ccc2c(Nc3cc(CC(=O)Nc4cccc(F)c4)[nH]n3)ncnc2c1 [AZD2811]; settings: max 1 µM
Outline: as §1

SN-38 = compound: CCc1c2c(nc3ccc(O)cc13)-c1cc3c(c(=O)n1C2)COC(=O)[C@]3(O)CC [SN-38]; settings: max 0.3 µM
Outline: as §1

AZD0156 = compound: CN(C)CCCOc1ccc(-c2ccc3ncc4c(c3c2)n(C2CCOCC2)c(=O)n4C)cn1 [AZD0156]; settings: max 3 µM
Outline: as §1

AZD4320 = compound: CN(CC[C@H](CSC1=CC=CC=C1)NC2=C(C=C(C=C2)S(=O)(=O)NC(=O)C3=CC=C(C=C3)N4CCC(CC4)[C@H](C5=CC=CC=C5C6=CC=C(C=C6)Cl)O)S(=O)(=O)C(F)(F)F)CCO [AZD4320]; settings: max 1 µM
Outline: as §1

Alisertib = compound: COc1cc(Nc2ncc3c(n2)-c2ccc(Cl)cc2C(c2c(F)cccc2OC)=NC3)ccc1C(=O)O [Alisertib]; settings: max 10 µM
Outline: as §1

Etoposide = compound: COc1cc([C@@H]2c3cc4c(cc3[C@@H](O[C@@H]3O[C@@H]5CO[C@@H](C)O[C@H]5[C@H](O)[C@H]3O)[C@H]3COC(=O)[C@H]23)OCO4)cc(OC)c1O [Etoposide]; settings: max 10 µM
Outline: as §1

Gefitinib = compound: COc1cc2ncnc(Nc3ccc(F)c(Cl)c3)c2cc1OCCCN1CCOCC1 [Gefitinib]; settings: max 10 µM
Outline: as §1

Prexasertib = compound: COc1cccc(OCCCN)c1-c1cc(Nc2cnc(C#N)cn2)n[nH]1 [Prexasertib]; settings: max 1 µM
Outline: as §1

Doxorubicin = compound: COc1cccc2c1C(=O)c1c(O)c3c(c(O)c1C2=O)C[C@@](O)(C(=O)CO)C[C@@H]3O[C@H]1C[C@H](N)[C@H](O)[C@H](C)O1 [Doxorubicin]; settings: max 1 µM
Outline: as §1

AZD5153 = compound: COc1nnc2ccc(N3CCC(c4ccc(OCCN5CCN(C)C(=O)[C@H]5C)cc4)CC3)nn12 [AZD5153]; settings: max 1 µM
Outline: as §1

Lapatinib = compound: CS(=O)(=O)CCNCc1ccc(-c2ccc3ncnc(Nc4ccc(OCc5cccc(F)c5)c(Cl)c4)c3c2)o1 [Lapatinib]; settings: max 10 µM
Outline: as §1

AZD8186 = compound: C[C@@H](Nc1cc(F)cc(F)c1)c1cc(C(=O)N(C)C)cc2c(=O)cc(N3CCOCC3)oc12 [AZD8186]; settings: max 10 µM
Outline: as §1

Crizotinib = compound: C[C@@H](Oc1cc(-c2cnn(C3CCNCC3)c2)cnc1N)c1c(Cl)ccc(F)c1Cl [Crizotinib]; settings: max 10 µM
Outline: as §1

Savolitinib = compound: C[C@@H](c1ccc2nccn2c1)n1nnc2ncc(-c3cnn(C)c3)nc21 [Savolitinib]; settings: max 1 µM
Outline: as §1

AZD6738 = compound: C[C@@H]1COCCN1C2=NC(=NC(=C2)C3(CC3)[S@](=N)(=O)C)C4=C5C=CNC5=NC=C4 [AZD6738]; settings: max 10 µM
Outline: as §1

AZD5991 = compound: Cc1c2c(nn1C)CSCc1cc(n(C)n1)CSc1cc(c3ccccc3c1)OCCCc1c(C(=O)O)n(C)c3c-2c(Cl)ccc13 [AZD5991]; settings: max 1 µM
Outline: as §1

AZD7648 = compound: Cc1cc2ncnn2cc1Nc1ncc2c(n1)n(C1CCOCC1)c(=O)n2C [AZD7648]; settings: max 10 µM
Outline: as §1

Taselisib = compound: Cc1nc(-c2cn3c(n2)-c2ccc(-c4cnn(C(C)(C)C(N)=O)c4)cc2OCC3)n(C(C)C)n1 [Taselisib]; settings: max 10 µM
Outline: as §1

Selumetinib = compound: Cn1cnc2c(F)c(Nc3ccc(Br)cc3Cl)c(C(=O)NOCCO)cc21 [Selumetinib]; settings: max 10 µM
Outline: as §1

SRA737 = compound: N#Cc1cnc(Nc2cc(NC[C@H]3CNCCO3)c(C(F)(F)F)cn2)cn1 [SRA737]; settings: max 10 µM
Outline: as §1

MK-2206 = compound: NC1(c2ccc(-c3nc4ccn5c(=O)[nH]nc5c4cc3-c3ccccc3)cc2)CCC1 [MK-2206]; settings: max 10 µM
Outline: as §1

Gemcitabine = compound: Nc1ccn([C@@H]2O[C@H](CO)[C@@H](O)C2(F)F)c(=O)n1 [Gemcitabine]; settings: max 0.3 µM
Outline: as §1

[1] = compound: O=C(Nc1ccc2[nH]nc(-c3ccncc3)c2c1)[C@@H]1CCN(CC(=O)N2CCN(c3ccc(-c4ncccn4)cc3)CC2)C1; settings: max 5 µM
Outline: as §1

Olaparib = compound: O=C(c1cc(Cc2n[nH]c(=O)c3ccccc23)ccc1F)N1CCN(C(=O)C2CC2)CC1 [Olaparib]; settings: max 10 µM
Outline: as §1

5-Fluorouracil = compound: O=c1[nH]cc(F)c(=O)[nH]1 [5-Fluorouracil]; settings: max 20 µM
Outline: as §1

BL-41 (Burkitt's Lymphoma)
IC50, cell viability 72 h (Carboplatin): > 10 µM
IC50, cell viability 72 h (AZD5363): > 10 µM
IC50, cell viability 72 h (AZD1775): 264 nM
IC50, cell viability 72 h (Trametinib): > 1000 nM
IC50, cell viability 72 h (Paclitaxel): 3.91 nM
IC50, cell viability 72 h (Palbociclib): > 10 µM
IC50, cell viability 72 h (AZD1390): > 300 nM
IC50, cell viability 72 h (Venetoclax): > 1000 nM
IC50, cell viability 72 h (Dasatinib): > 2000 nM
IC50, cell viability 72 h (SG3199): > 1 nM
IC50, cell viability 72 h (AZD2811): 48 nM
IC50, cell viability 72 h (SN-38): 2.17 nM
IC50, cell viability 72 h (AZD0156): > 3000 nM
IC50, cell viability 72 h (AZD4320): > 1000 nM
IC50, cell viability 72 h (Alisertib): 0.0285 µM
IC50, cell viability 72 h (Etoposide): 342 nM
IC50, cell viability 72 h (Gefitinib): > 10 µM
IC50, cell viability 72 h (Prexasertib): 3.67 nM
IC50, cell viability 72 h (Doxorubicin): 37.7 nM
IC50, cell viability 72 h (AZD5153): 46 nM
IC50, cell viability 72 h (Lapatinib): 6.1 µM
IC50, cell viability 72 h (AZD8186): > 10 µM
IC50, cell viability 72 h (Crizotinib): 2.44 µM
IC50, cell viability 72 h (Savolitinib): > 1000 nM
IC50, cell viability 72 h (AZD6738): 618 nM
IC50, cell viability 72 h (AZD5991): 48.2 nM
IC50, cell viability 72 h (AZD7648): > 10 µM
IC50, cell viability 72 h (Taselisib): > 10 µM
IC50, cell viability 72 h (Selumetinib): > 10 µM
IC50, cell viability 72 h (SRA737): 2000 nM
IC50, cell viability 72 h (MK-2206): > 10 µM
IC50, cell viability 72 h (Gemcitabine): 8.5 nM
IC50, cell viability 72 h [1]: > 5 µM
IC50, cell viability 72 h (Olaparib): > 10 µM
IC50, cell viability 72 h (5-Fluorouracil): > 20 µM

L-540 (Hodgkin's Lymphoma)
IC50, cell viability 72 h (Carboplatin): > 10 µM
IC50, cell viability 72 h (AZD5363): > 10 µM
IC50, cell viability 72 h (AZD1775): 299 nM
IC50, cell viability 72 h (Trametinib): > 1000 nM
IC50, cell viability 72 h (Paclitaxel): 39.3 nM
IC50, cell viability 72 h (Palbociclib): > 10 µM
IC50, cell viability 72 h (AZD1390): > 300 nM
IC50, cell viability 72 h (Venetoclax): > 1000 nM
IC50, cell viability 72 h (Dasatinib): > 2000 nM
IC50, cell viability 72 h (SG3199): > 1 nM
IC50, cell viability 72 h (AZD2811): > 1000 nM
IC50, cell viability 72 h (SN-38): 2.77 nM
IC50, cell viability 72 h (AZD0156): > 3000 nM
IC50, cell viability 72 h (AZD4320): > 1000 nM
IC50, cell viability 72 h (Alisertib): 3.88 µM
IC50, cell viability 72 h (Etoposide): 779 nM
IC50, cell viability 72 h (Gefitinib): > 10 µM
IC50, cell viability 72 h (Prexasertib): 8.45 nM
IC50, cell viability 72 h (Doxorubicin): 157 nM
IC50, cell viability 72 h (AZD5153): 104 nM
IC50, cell viability 72 h (Lapatinib): > 10 µM
IC50, cell viability 72 h (AZD8186): > 10 µM
IC50, cell viability 72 h (Crizotinib): 6.59 µM
IC50, cell viability 72 h (Savolitinib): > 1000 nM
IC50, cell viability 72 h (AZD6738): 761 nM
IC50, cell viability 72 h (AZD5991): 99.8 nM
IC50, cell viability 72 h (AZD7648): > 10 µM
IC50, cell viability 72 h (Taselisib): > 10 µM
IC50, cell viability 72 h (Selumetinib): > 10 µM
IC50, cell viability 72 h (SRA737): 2460 nM
IC50, cell viability 72 h (MK-2206): > 10 µM
IC50, cell viability 72 h (Gemcitabine): 7.55 nM
IC50, cell viability 72 h [1]: > 5 µM
IC50, cell viability 72 h (Olaparib): > 10 µM
IC50, cell viability 72 h (5-Fluorouracil): 0.835 µM

MKN28 (Gastric Carcinoma)
IC50, cell viability 72 h (Carboplatin): > 10 µM
IC50, cell viability 72 h (AZD5363): > 10 µM
IC50, cell viability 72 h (AZD1775): > 3000 nM
IC50, cell viability 72 h (Trametinib): > 1000 nM
IC50, cell viability 72 h (Paclitaxel): 1440 nM
IC50, cell viability 72 h (Palbociclib): > 10 µM
IC50, cell viability 72 h (AZD1390): > 300 nM
IC50, cell viability 72 h (Venetoclax): > 1000 nM
IC50, cell viability 72 h (Dasatinib): > 2000 nM
IC50, cell viability 72 h (SG3199): > 1 nM
IC50, cell viability 72 h (AZD2811): > 1000 nM
IC50, cell viability 72 h (SN-38): > 300 nM
IC50, cell viability 72 h (AZD0156): > 3000 nM
IC50, cell viability 72 h (AZD4320): > 1000 nM
IC50, cell viability 72 h (Alisertib): > 10 µM
IC50, cell viability 72 h (Etoposide): > 10000 nM
IC50, cell viability 72 h (Gefitinib): > 10 µM
IC50, cell viability 72 h (Prexasertib): 456 nM
IC50, cell viability 72 h (Doxorubicin): > 1000 nM
IC50, cell viability 72 h (AZD5153): > 1000 nM
IC50, cell viability 72 h (Lapatinib): > 10 µM
IC50, cell viability 72 h (AZD8186): > 10 µM
IC50, cell viability 72 h (Crizotinib): > 10 µM
IC50, cell viability 72 h (Savolitinib): > 1000 nM
IC50, cell viability 72 h (AZD6738): > 10000 nM
IC50, cell viability 72 h (AZD5991): > 1000 nM
IC50, cell viability 72 h (AZD7648): > 10 µM
IC50, cell viability 72 h (Taselisib): > 10 µM
IC50, cell viability 72 h (Selumetinib): > 10 µM
IC50, cell viability 72 h (SRA737): > 10000 nM
IC50, cell viability 72 h (MK-2206): > 10 µM
IC50, cell viability 72 h (Gemcitabine): > 300 nM
IC50, cell viability 72 h [1]: > 5 µM
IC50, cell viability 72 h (Olaparib): > 10 µM
IC50, cell viability 72 h (5-Fluorouracil): > 20 µM
